Test results reported in ChEMBL document CHEMBL5038601, “Carbohydrate-Based NK1R Antagonists with Broad-Spectrum Anticancer Activity” (J Med Chem, 2021).
Calls of active or inactive are those of the source. The rule behind the calls is not given here.

Key:
A549 [1] = assay: Inhibition of glycolysis in human A549 cells assessed as reduction in lactate production incubated for 8 hrs by colorimetric-oxidase mediator analysis; type: functional, cell-based
A549 [2] = assay: Inhibition of glycolysis in human A549 cells assessed as reduction in glucose consumption incubated for 8 hrs by colorimetric-oxidase mediator analysis; type: functional, cell-based

## O=C(O)C(Cl)Cl
A549 [1]
  inhibition: Active
A549 [2]
  inhibition: Active
